Results: patent publication US12139492B2 (Endotarget Inc., priority 2021, dated 2024)
Where two headings read alike, the source gives them in different places.

Key:
BTK = BTK (Homo sapiens, UniProt Q06187); experiment: Degradation of BTK protein in Namalwa cells (Western blot; DC50, Dmax)
Mino cells = experiment: Antiproliferative effect, MTS cell viability assay, Mino cells; type: cell-based; settings: Mino mantle cell lymphoma cells, read-out: IC50 (anti-proliferation) Mino cells
How it was run: (§1)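 Absorbance at 490 nm of formazan, formed by metabolically active cells from MTS tetrazolium, served as the viability measure after a 72 h treatment across a 0.001–10 μM concentration series plus untreated control.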

JeKo-1 cells = experiment: Antiproliferative effect, MTS cell viability assay, JeKo-1 cells; type: cell-based; settings: JeKo-1 mantle cell lymphoma cells, read-out: IC50 (anti-proliferation) JeKO-1 cells
How it was run: as §1

[1] = BTK degradation, cell line not given
[2] = read-out: DC50 (BTK degradation), concentration giving 50% reduction of BTK expression level, cell line not given
[3] = read-out: Dmax (BTK degradation)

Chain of BTK (Q06187 whole entry): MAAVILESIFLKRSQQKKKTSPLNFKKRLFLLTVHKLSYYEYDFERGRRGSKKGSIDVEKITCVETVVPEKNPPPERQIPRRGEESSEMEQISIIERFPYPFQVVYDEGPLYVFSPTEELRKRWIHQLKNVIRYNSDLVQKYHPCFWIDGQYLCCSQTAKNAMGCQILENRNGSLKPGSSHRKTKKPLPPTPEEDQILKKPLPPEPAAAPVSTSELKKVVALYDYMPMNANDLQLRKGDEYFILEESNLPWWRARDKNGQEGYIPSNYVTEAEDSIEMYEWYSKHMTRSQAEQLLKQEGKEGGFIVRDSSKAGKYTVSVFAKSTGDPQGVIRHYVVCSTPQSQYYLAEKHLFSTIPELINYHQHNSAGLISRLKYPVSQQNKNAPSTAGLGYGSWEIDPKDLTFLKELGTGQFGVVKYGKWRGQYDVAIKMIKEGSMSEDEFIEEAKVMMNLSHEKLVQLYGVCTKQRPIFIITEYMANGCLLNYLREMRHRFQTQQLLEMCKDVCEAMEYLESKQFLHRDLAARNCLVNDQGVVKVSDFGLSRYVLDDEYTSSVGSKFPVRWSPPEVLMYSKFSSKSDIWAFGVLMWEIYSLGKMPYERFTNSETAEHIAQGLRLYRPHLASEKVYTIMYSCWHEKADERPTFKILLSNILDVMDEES

Compound | Dmax (BTK) | DC50 (BTK; [1]) | DC50 (BTK; [2]) | Dmax (BTK; [3]) | Dmax (BTK degradation) (BTK; cell line not given) | IC50 (Mino cells; Homo sapiens, MINO) | IC50 (JeKo-1 cells; Homo sapiens) | IC50 (Mino cells) | IC50 (JeKo-1 cells)
NC1=NC=NC2C1C(c1ccc(Oc3ccccc3)cc1)=NN2C1CCN(C(=O)N2CC(C3CN(c4ccc5c(c4)CN([C@@H]4CCC(=O)NC4=O)C5=O)C3)C2)CC1 (stereo partly drawn) [Compound 496, (3R)-3-(5-(1′-(4-(4-amino-3-(4-phenoxyphenyl)-3a,7a-dihydro-1H-pyrazolo[3,4-d]pyrimidin-1-yl)piperidine-1-carbonyl)-[3,3′-biazetidin]-1-yl)-1-oxoisoindolin-2-yl)piperidine-2,6-dione] | – | – | < 10 nM | > 90% | – | < 1000 nM | < 1000 nM | – | –
NC(=O)c1c(-c2ccc(Oc3ccccc3)cc2)nn2c1NCC[C@H]2C1CCN(C(=O)N2CCC(CN3CCN(c4ccc5c(c4)CN(C4CCC(=O)NC4=O)C5=O)CC3)CC2)CC1 (stereo partly drawn) [Compound 292, (7S)-7-(1-(4-((4-(2-(2,6-dioxopiperidin-3-yl)-1-oxoisoindolin-5-yl)piperazin-1-yl)methyl)piperidine-1-carbonyl)piperidin-4-yl)-2-(4-phenoxyphenyl)-4,5,6,7-tetrahydropyrazolo[1,5-a]pyrimidine-3-carboxamide] | > 90% | < 10 nM | – | – | – | < 1000 nM | < 1000 nM | – | –
NC(=O)c1c(-c2ccc(Oc3ccccc3)cc2)nn2c1NCC[C@H]2C1CCN(C2CCN(CC3CCN(c4ccc5c(c4)C(=O)N(C4CCC(=O)NC4=O)C5=O)CC3)CC2)CC1 (stereo partly drawn) [Compound 321, (7S)-7-(1′-((1-(2-(2,6-dioxopiperidin-3-yl)-1,3-dioxoisoindolin-5-yl)piperidin-4-yl)methyl)-[1,4′-bipiperidin]-4-yl)-2-(4-phenoxyphenyl)-4,5,6,7-tetrahydropyrazolo[1,5-a]pyrimidine-3-carboxamide] | > 75% | 10 to 50 nM | – | – | – | > 10000 nM | > 10000 nM | – | –
Nc1ncnc2c1c(-c1ccc(Oc3ccccc3)cc1)nn2C1CCC(CN2CC(N3CCN(c4ccc5c(c4)CN(C4CCC(=O)NC4=O)C5=O)CC3)C2)CC1 (centres unmarked) [Compound 533, 3-(5-(4-(1-((4-(4-amino-3-(4-phenoxyphenyl)-1H-pyrazolo[3,4-d]pyrimidin-1-yl)cyclohexyl)methyl)azetidin-3-yl)piperazin-1-yl)-1-oxoisoindolin-2-yl)piperidine-2,6-dione] | – | – | < 10 nM | > 90% | – | < 1000 nM | < 1000 nM | – | –
Nc1ncnc2c1c(-c1ccc(Oc3ccccc3)cc1)nn2C1CCN(CCN2CCC(CN3CCN(c4ccc(NC5CCC(=O)NC5=O)cc4)CC3)CC2)CC1 (centres unmarked) [Compound 558, 3-((4-(4-((1-(2-(4-(4-amino-3-(4-phenoxyphenyl)-1H-pyrazolo[3,4-d]pyrimidin-1-yl)piperidin-1-yl)ethyl)piperidin-4-yl)methyl)piperazin-1-yl)phenyl)amino)piperidine-2,6-dione] | – | – | < 10 nM | > 90% | – | < 1000 nM | < 1000 nM | – | –
Nc1ncnc2c1c(-c1ccc(Oc3ccccc3)cc1)nn2C1CCN(CCN2CCC(CN3CCN(c4ccc5c(c4)CN(C4CCC(=O)NC4=O)C5=O)CC3)CC2)CC1 (centres unmarked) [Compound 454, 3-(5-(4-((1-(2-(4-(4-amino-3-(4-phenoxyphenyl)-1H-pyrazolo[3,4-d]pyrimidin-1-yl)piperidin-1-yl)ethyl)piperidin-4-yl)methyl)piperazin-1-yl)-1-oxoisoindolin-2-yl)piperidine-2,6-dione] | – | – | > 50 nM | > 50% | – | > 10000 nM | 1000 to 10000 nM | – | –
NC(=O)c1c(-c2ccc(Oc3ccccc3)cc2)nn2c1NCCC2C1CCN(C2CCN(C(=O)N3CCC(C4CCN(c5ccc6c(c5)CN(C5CCC(=O)NC5=O)C6=O)CC4)CC3)CC2)CC1 (centres unmarked) [Compound 344, 7-(1′-(1′-(2-(2,6-dioxopiperidin-3-yl)-1-oxoisoindolin-5-yl)-[4,4′-bipiperidine]-1-carbonyl)-[1,4′-bipiperidin]-4-yl)-2-(4-phenoxyphenyl)-4,5,6,7-tetrahydropyrazolo[1,5-a]pyrimidine-3-carboxamide] | > 90% | < 10 nM | – | – | – | 1000 to 10000 nM | < 1000 nM | – | –
Nc1ncnc2c1c(-c1ccc(Oc3ccccc3)cc1)nn2C1CCC(C(=O)N2CC(N3CCN(c4ccc5c(c4)C(=O)N(C4CCC(=O)NC4=O)C5=O)CC3)C2)CC1 (centres unmarked) [Compound 511, 5-(4-(1-(4-(4-amino-3-(4-phenoxyphenyl)-1H-pyrazolo[3,4-d]pyrimidin-1-yl)cyclohexane-1-carbonyl)-152-zetidine-3-yl)piperazin-1-yl)-2-(2,6-dioxopiperidin-3-yl)isoindoline-1,3-dione] | – | – | < 10 nM | – | A (A >90%) | – | – | < 1000 nM | < 1000 nM

Further lines, with some results ahead:

Dmax (BTK) | DC50 (BTK; [1]) | DC50 (BTK; [2]) | Dmax (BTK; [3]) | Dmax (BTK degradation) (BTK; cell line not given) | Compound | IC50 (Mino cells; Homo sapiens, MINO) | IC50 (JeKo-1 cells; Homo sapiens) | IC50 (Mino cells) | IC50 (JeKo-1 cells)
> 50% | > 50 nM | – | – | – | Nc1ncnc2c1c(-c1ccc(Oc3ccccc3)cc1)nn2C1CCN(C2CCN(C(=O)N3CCC(c4ccc5c(c4)CN(C4CCC(=O)NC4=O)C5=O)CC3)CC2)CC1 (centres unmarked) [Compound 228, 3-(5-(1-(4-(4-amino-3-(4-phenoxyphenyl)-1H-pyrazolo[3,4-d]pyrimidin-1-yl)-[1,4′-bipiperidine]-1′-carbonyl)piperidin-4-yl)-1-oxoisoindolin-2-yl)piperidine-2,6-dione] | > 10000 nM | > 10000 nM | – | –
> 75% | > 50 nM | – | – | – | Nc1ncnc2c1c(-c1ccc(Oc3ccccc3)cc1)nn2C1CCN(CC2CCN(CCCN3CCN(c4ccc5c(c4)CN(C4CCC(=O)NC4=O)C5=O)CC3)CC2)CC1 (centres unmarked) [Compound 208, 3-(5-(4-(3-(4-((4-(4-amino-3-(4-phenoxyphenyl)-1H-pyrazolo[3,4-d]pyrimidin-1-yl)piperidin-1-yl)methyl)piperidin-1-yl)propyl)piperazin-1-yl)-1-oxoisoindolin-2-yl)piperidine-2,6-dione] | > 10000 nM | > 10000 nM | – | –
– | – | 10 to 50 nM | > 90% | – | Nc1ncnc2c1c(-c1ccc(Oc3ccccc3)cc1)nn2C1CCN(C[C@@H]2CCN(CC3CN(c4ccc5c(c4)C(=O)N(C4CCC(=O)NC4=O)C5=O)C3)C2)CC1 (stereo partly drawn) [Compound 423b, 5-(3-(((S)-3-((4-(4-amino-3-(4-phenoxyphenyl)-1H-pyrazolo[3,4-d]pyrimidin-1-yl)piperidin-1-yl)methyl)pyrrolidin-1-yl)methyl)azetidin-1-yl)-2-(2,6-dioxopiperidin-3-yl)isoindoline-1,3-dione] | < 1000 nM | 1000 to 10000 nM | – | –
> 90% | 10 to 50 nM | – | – | – | NC(=O)c1c(-c2ccc(Oc3ccccc3)cc2)nn2c1NCC[C@H]2C1CCN(C(=O)N2CCN(CCN3CCN(c4ccc5c(c4)C(=O)N(C4CCC(=O)NC4=O)C5=O)CC3)CC2)CC1 (stereo partly drawn) [Compound 297, (7S)-7-(1-(4-(2-(4-(2-(2,6-dioxopiperidin-3-yl)-1,3-dioxoisoindolin-5-yl)piperazin-1-yl)ethyl)piperazine-1-carbonyl)piperidin-4-yl)-2-(4-phenoxyphenyl)-4,5,6,7-tetrahydropyrazolo[1,5-a]pyrimidine-3-carboxamide] | 1000 to 10000 nM | 1000 to 10000 nM | – | –
– | – | < 10 nM | > 90% | – | Nc1ncnc2c1c(-c1ccc(Oc3ccccc3)cc1)nn2C1CCN(C2CCN(CCCN3CCC(c4ccc(NC5CCC(=O)NC5=O)cc4)CC3)CC2)CC1 (centres unmarked) [Compound 580, 3-((4-(1-(3-(4-(4-amino-3-(4-phenoxyphenyl)-1H-pyrazolo[3,4-d]pyrimidin-1-yl)-[1,4′-bipiperidin]-1′-yl)propyl)piperidin-4-yl)phenyl)amino)piperidine-2,6-dione] | < 1000 nM | < 1000 nM | – | –
> 50% | 10 to 50 nM | – | – | – | Nc1ncnc2c1c(-c1ccc(Oc3ccccc3)cc1)nn2C1CCN(C2CCN(CCN3CCC(c4ccc5c(c4)C(=O)N(C4CCC(=O)NC4=O)C5=O)CC3)CC2)CC1 (centres unmarked) [Compound 219, 5-(1-(2-(4-(4-amino-3-(4-phenoxyphenyl)-1H-pyrazolo[3,4-d]pyrimidin-1-yl)-[1,4′-bipiperidin]-1′-yl)ethyl)piperidin-4-yl)-2-(2,6-dioxopiperidin-3-yl)isoindoline-1,3-dione] | 1000 to 10000 nM | 1000 to 10000 nM | – | –
> 90% | 10 to 50 nM | – | – | – | Nc1ncnc2c1c(-c1ccc(Oc3ccccc3)cc1)nn2C1CCN(C2CCN(C(=O)N3CCC(CC4CCN(c5ccc6c(c5)C(=O)N(C5CCC(=O)NC5=O)C6=O)CC4)CC3)CC2)CC1 (centres unmarked) [Compound 237, 5-(4-((1-(4-(4-amino-3-(4-phenoxyphenyl)-1H-pyrazolo[3,4-d]pyrimidin-1-yl)-[1,4′-bipiperidine]-1′-carbonyl)piperidin-4-yl)methyl)piperidin-1-yl)-2-(2,6-dioxopiperidin-3-yl)isoindoline-1,3-dione] | < 1000 nM | 1000 to 10000 nM | – | –
– | – | < 10 nM | > 90% | – | Nc1ncnc2c1c(-c1ccc(Oc3ccccc3)cc1)nn2C1CCN(CC2CN(CC3CCN(c4ccc5c(c4)CN(C4CCC(=O)NC4=O)C5=O)C3)C2)CC1 (centres unmarked) [Compound 444, 3-(5-(3-((3-((4-(4-amino-3-(4-phenoxyphenyl)-1H-pyrazolo[3,4-d]pyrimidin-1-yl)piperidin-1-yl)methyl)azetidin-1-yl)methyl)pyrrolidin-1-yl)-1-oxoisoindolin-2-yl)piperidine-2,6-dione] | < 1000 nM | < 1000 nM | – | –
– | – | 10 to 50 nM | > 50% | – | Nc1ncnc2c1c(-c1ccc(Oc3ccccc3)cc1)nn2[C@@H]1CCCN(CC2CCN(c3ccc(N4CCC(=O)NC4=O)cc3)CC2)C1 [Compound 529, (R)-1-(4-(4-((3-(4-amino-3-(4-phenoxyphenyl)-1H-pyrazolo[3,4-d]pyrimidin-1-yl)piperidin-1-yl)methyl)piperidin-1-yl)phenyl)dihydropyrimidine-2,4(1H,3H)-dione] | > 10000 nM | > 10000 nM | – | –
